Assays:
[1] = tested on: U343mga cells; test: Cell uptake of boron compounds (Example 2); format: cell-based, human; details: for boron content expressed as a function of the total cellular protein, Trial 1 / boron content expressed as a function of the total cellular protein, Trial 2: 6 hours incubation, 5×10^−4 mol/L boron; for boron content expressed as a function of the total cellular protein, Trial 1: 7.2 μg boron/mL media; for boron content expressed as a function of the total cellular protein, Trial 2: 7.7 μg boron/mL media
Procedure: (§1) An in vitro test of the Phe-BF3 of the Example 1 uses four different human-derived tumor cell lines U343mga, human liver cancer cell line Hep3B, human breast cancer cell line MCF7 and human Sarcoma cell line 4SS. Cells were plated on uncoated tissue culture dishes and incubated at 37° C. in an incubator with humidified air equilibrated with 5% CO2 (the medium was supplemented with 10% FCS and PEST (Penicillin 100 IU/mL and streptomycin […])). For cell passage, cells were trypsinized with trypsin-EDTA (phosphate buffered saline (PBS) with 0.25% trypsin and 0.02% EDTA, no calcium and magnesium).
U343mga cells were plated on Petri dishes at a cell density of 75% and incubated for 6 hours with 1,4-dihydroxyborylphenylalanine (BPA) or Phe-BF3 dissolved in tissue culture medium. Both boron-containing compounds were added at an equimolar concentration relative to the boron content (5×10^−4 mol/L boron) and dissolved in tissue culture medium. Incubation was terminated by removing the boron containing tissue culture medium and adding cold phosphate buffered saline solution (PBS buffer) in order to wash away excess medium from the cells. Cells were immediately harvested by scooping off from the petri dishes using rubber policeman, and collected in cold PBS and pelleted by centrifugation.
Total protein analysis was performed on cell samples according to the Bradford standard procedure. The precipitated cells were subjected to boron analysis by DC-plasmon atomic emission spectroscopy (DCP-AES). The sample (50-130 mg) was digested with sulfuric acid/nitric acid (1/1) at 60° C. Triton X-100 and water were added to give concentrations of 50 mg tissue/mL, 15% total acid v/v, and 5% Triton X-100 v/v. The boron concentration is based on known control sample.

[2] = tested on: U343mga cells; test: Intracellular retention of boron (Example 4); format: cell-based, human; details: for Boron content in U343mga cells, 0 h after removal of the boron-containing medium / Boron content in U343mga cells, 2 h after removal of the boron-containing medium / Boron content in U343mga cells, 7 h after removal of the boron-containing medium: 18 hours incubation, 5×10^−4 mol/L boron
Procedure: U343mga cells were plated on Petri dishes at a cell density of 75% and incubated for 18 hours with 1,4-dihydroxyboron-phenylalanine (BPA) or Phe-BF3 in tissue culture medium. Both boron compounds were added to the tissue culture medium at equimolar concentrations relative to the boron content (5×10^−4 mol/L boron). The incubation was terminated by replacing the boron-containing medium with a boron-free medium. Cell samples were taken at time points 0, 2 and 7 hours, respectively, where the 0 time point represented the time point when the incubation with the boron compound reached just 18 hours.
The cells were washed with cold PBS and immediately harvested by scooping off from the petri dish using rubber policeman, and collected in cold PBS and pelleted by centrifugation. The cell pellets were analyzed for total protein and boron content as described above. With intracellular uptake, the compound of formula (I) retained in the tumor cells was 50% of the total uptake at 7 h after the complete consumption of Ia in the medium.

[3] = tested on: U343mga; test: Uptake of Phe-BF3 by different tumor cells (Example 3); format: cell-based, human
Procedure: as §1
(§2) Four human-derived, different tumor cell lines: U343mga, Hep3B, MCF7, and 4SS were plated on Petri dishes at 40-50% (low) and 90-100% (high) cell densities, and incubated with Phe-BF3 in tissue culture as described above for 6 hours. Incubation was terminated by removing the boron-containing media and adding cold PBS buffer to wash excess media from the cells. Cells were immediately harvested by scooping off from the petri dishes using rubber policeman, and collected in cold PBS and pelleted by centrifugation. Total protein analysis was performed on cell samples according to the Bradford standard procedure (as described above).

[4] = tested on: mouse fibroblast L-929 cells; test: Cytotoxicity study, MTT colorimetry (Example 5); format: cell-based; details: for Relative cell proliferation RGR: 5 mmol/L, MTT
Procedure: The cell culture fluid containing the peptide bovine serum was incubated at 37 C for 24 hours. The passage cultured mouse fibroblast L-929 cells were used to prepare a cell suspension of 1×10^5 cells/mL, and the cell suspension was seeded on a 96-well cell culture plate (100 μl/well) and cultured in a carbon dioxide incubator at 37° C. for 24 hours. After the cells adhere to the wall, the supernatant was removed, the control solution (in absence of compound Ia) was added, and the culture solution of the test group (Phe-BF3 concentration of 5 mmol/L) was exchanged, and the culture was continued in the carbon dioxide incubator at 37° C. After 2 days, MTT solution was added to continue culture for 4 hours. The original solution was aspirated and DMSO was added and shaken for 10 min. The absorbance value was measured with an enzyme-linked immunometric instrument at a wavelength of 630 nm, and the relative proliferation rate (RGR) of the cells was calculated according to the absorbance according to the formula.

[5] = tested on: human breast cancer cell line MCF7; test: Uptake of Phe-BF3 by different tumor cells (Example 3); format: cell-based; details: 6 hours
Procedure: as §1, §2

[6] = tested on: human Sarcoma cell line 4SS; test: as above; format: cell-based; details: 6 hours
Procedure: as §1, §2

[7] = tested on: human liver cancer cell line Hep3B; test: as above; format: cell-based; details: 6 hours
Procedure: as §1, §2

Compound | boron content expressed as a function of the total cellular protein, Trial 1 [1] | boron content expressed as a function of the total cellular protein, Trial 2 [1] | Boron content in U343mga cells, 0 h after removal of the boron-containing medium [2] | Boron content in U343mga cells, 2 h after removal of the boron-containing medium [2] | Boron content in U343mga cells, 7 h after removal of the boron-containing medium [2] | boron content as a function of the total cellular protein, low cell density ([3]; U343mga, 40-50% cell density, 6 hours) | boron content as a function of the total cellular protein, high cell density ([3]; U343mga, 90-100% cell density, 6 hours) | efficiency as boron carrier ([3]; all four human tumor cell lines at low and high cell densities) | Relative cell proliferation RGR ([4]; 2 days) | Relative cell proliferation RGR ([4]; 7 days) | cytotoxicity assessment ([4]; graded by RGR (Table 5)) | boron uptake compared with BPA ([1]; 6 hours) | boron content as a function of the total cellular protein, low cell density ([5]; MCF7, 40-50% cell density) | boron content as a function of the total cellular protein, high cell density ([5]; MCF7, 90-100% cell density) | boron content as a function of the total cellular protein, low cell density ([6]; 40-50% cell density) | boron content as a function of the total cellular protein, high cell density ([6]; 90-100% cell density) | boron content as a function of the total cellular protein, low cell density ([7]; 40-50% cell density) | boron content as a function of the total cellular protein, high cell density ([7]; 90-100% cell density) | tumor cell uptake, accumulation, and retention compared with BPA ([2]; summary of Examples 2-4, in vitro)
N[C@@H](CC1(BO)C=CC(BO)=CC1)C(=O)O (stereo partly drawn) [BPA, 1,4-dihydroxyborylphenylalanine, reference compound] | 62 | 39 | 0.072 μg boron/g cell pellet | 0 μg boron/g cell pellet | 0 μg boron/g cell pellet | – | – | – | – | – | – | – | – | – | – | – | – | – | –
[NH3+]C(Cc1ccccc1)[B-](F)(F)F (stereo not drawn) [Phe-BF3] | 549 | 421 | 0.83 μg boron/g cell pellet | 0.56 μg boron/g cell pellet | 0.41 μg boron/g cell pellet | 102 μg boron/g cell protein | 178 μg boron/g cell protein | highly efficient boron carrier | 123% | 102% | no signs of toxicity | better than boron phenylalanine (BPA) in boron uptake | 101 μg boron/g cell protein | 167 μg boron/g cell protein | 255 μg boron/g cell protein | 343 μg boron/g cell protein | 149 μg boron/g cell protein | 207 μg boron/g cell protein | superior to BPA in tumor cell uptake, accumulation, and retention
